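1) Cells in 96-well plates. 2) Compound, 48 h, 5 concentrations. 3) Linear interpolation between surrounding doses. 4) Unreached endpoint = highest concentration. GI50 = concentration required for 50% inhibition of growth. TGI: total growth inhibition.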
Legend:
Assay in all cases: NCI tumour cell line growth inhibition, 48 h
[1] = system: RPMI-8226 leukemia
[2] = system: HS 578T breast
[3] = system: SNB-19 CNS
[4] = system: ACHN renal
[5] = system: OVCAR-4 ovarian
[6] = system: LOX IMVI melanoma
[7] = system: CCRF-CEM leukemia
[8] = system: SF-268 CNS
[9] = system: NCI-H460 lung
[10] = system: MDA-N
[11] = system: HL-60(TB) leukemia
[12] = system: U251 CNS
[13] = system: TK-10 renal
[14] = system: BT-549 breast
[15] = system: KM12 colon
[16] = system: UO-31 renal
[17] = system: MOLT-4 leukemia

Structure (SMILES)	TGI [1] [µM]	TGI [2] [µM]	TGI [3] [µM]	TGI [4] [µM]	TGI [5] [µM]	TGI [6] [µM]	TGI [7] [µM]	TGI [8] [µM]	TGI [9] [µM]	TGI [10] [µM]	TGI [11] [µM]	TGI [12] [µM]	TGI [13] [µM]	TGI [14] [µM]	TGI [15] [µM]	TGI [16] [µM]	TGI [17] [µM]	GI50 [3] [µM]	GI50 [4] [µM]	GI50 [5] [µM]
CCOP(=O)(OCC)C(c1ccc(F)cc1)N(C(=O)NC(F)(F)F)c1cccc(C(F)(F)F)c1 (stereo not given)	> 100	> 100	> 100	> 100	> 100	> 100	> 100	> 100	> 100	> 100	> 100	> 100	> 100	> 100	> 100	> 100	> 100	–	–	–
CCOC(=O)Cn1c(=O)ccn(COCCO)c1=O	> 100	> 100	> 100	> 100	> 100	> 100	> 100	> 100	> 100	> 100	> 100	> 100	> 100	> 100	> 100	> 100	> 100	–	–	–
CCOC(=O)CNC(=O)N(CC)C12CC3CC(CC(C3)C1)C2	316	–	430	–	536	252	388	317	406	–	314	239	–	–	453	358	322	–	–	–
CC1CCCCNC1=S (stereo not given)	–	> 10	> 10	> 10	–	> 10	> 10	> 10	> 10	> 10	> 10	> 10	> 10	> 10	> 10	> 10	> 10	–	–	–
COCCCNc1nc(N)c(C#N)c(C#N)c1C#N	> 10	> 10	> 10	> 10	> 10	> 10	6.67	> 10	> 10	> 10	> 10	> 10	> 10	–	> 10	> 10	> 10	–	–	–
CCOC(=O)c1ccc(N[C@@H]2c3cc4c(cc3C(c3cc(OC)c(O)c(OC)c3)[C@H]3C(=O)OCC32)OCO4)cc1O (stereo not given in full)	4.77	–	> 25.9	–	> 100	0.442	> 100	25.3	0.822	–	5.66	–	–	–	1.47	78.1	1.21	–	–	–
C[C@@H]1Nc2cc(NC(=O)OCCF)nc(N)c2N=C1c1ccccc1	< 0.0001	–	–	> 100	> 100	–	–	–	–	< 0.0001	< 0.0001	12.2	–	> 100	–	89.1	< 0.0001	< 0.0001	< 0.0001	> 100
Clc1ccc(C[P+](c2ccccc2)(c2ccccc2)c2ccccc2)c(Cl)c1	5.31	–	13	47.6	35.6	12.9	21.3	24	11.8	–	3.25	18.8	25.6	–	7.01	–	18.1	–	–	–
COc1ccc(S(=O)(=O)c2ccccc2[N+](=O)[O-])cc1	> 100	–	> 100	–	> 100	> 100	> 100	> 100	> 100	–	> 100	> 100	> 100	–	> 100	> 100	> 100	–	–	–
CC1CC2=C(S(=O)(=O)c3ccccc3)CC(S(=O)(=O)c3ccccc3)(S(=O)(=O)c3ccccc3)CC21 (stereo not given)	> 100	–	> 100	> 100	> 100	> 100	> 100	> 100	> 100	–	> 100	> 100	> 100	–	> 100	> 100	> 100	–	–	–
